pIC50: −log10 of the molar value.
What was measured:
Format in all cases: functional, cell-based
[1] = tested on: HepG2; assay: Antiproliferative activity against human HepG2 cells after 72 hrs by MTT assay; details: HepG2, 72 h
[2] = tested on: MCF7; assay: Antiproliferative activity against human MCF7 cells after 72 hrs by MTT assay; details: MCF7, 72 h
[3] = tested on: MGC-803; assay: Antiproliferative activity against human MGC803 cells after 72 hrs by MTT assay; details: MGC-803, 72 h
[4] = tested on: HCT-116; assay: Antiproliferative activity against human HCT116 cells after 72 hrs by MTT assay; details: HCT-116, 72 h
[5] = tested on: A549; assay: Antiproliferative activity against human A549 cells after 72 hrs by MTT assay; details: A549, 72 h

Structure (SMILES) | pIC50 [1] | pIC50 [2] | pIC50 [3] | pIC50 [4] | pIC50 [5]
CC(=O)N[C@H]1[C@H](O[C@H]2CC[C@]3(C)[C@H]4CC=C5[C@@H]6CC(C)(C)CC[C@]6(C(=O)OCc6cn(-c7ccccc7OC(F)(F)F)nn6)CC[C@@]5(C)[C@]4(C)CC[C@H]3C2(C)C)O[C@H](CO[C@@H]2OC[C@H](O)[C@H](O)[C@@H]2O)[C@@H](O)[C@@H]1O | 4.50 | 4.49 | 4.43 | 4.42 | 4.82
CCOc1ccc(-n2cc(COC(=O)[C@]34CCC(C)(C)C[C@H]3C3=CC[C@@H]5[C@@]6(C)CC[C@H](O[C@@H]7O[C@H](CO[C@@H]8OC[C@H](O)[C@H](O)[C@@H]8O)[C@@H](O)[C@H](O)[C@H]7NC(C)=O)C(C)(C)[C@@H]6CC[C@@]5(C)[C@]3(C)CC4)nn2)cc1 | 4.87 | 4.61 | 4.67 | 4.78 | 4.71
O=c1[nH]cc(F)c(=O)[nH]1 [FLUOROURACIL] | 4.32 |  | 4.51 | 4.42 | 4.15
CC(=O)N[C@H]1[C@H](O[C@H]2CC[C@]3(C)[C@H]4CC=C5[C@@H]6CC(C)(C)CC[C@]6(C(=O)OCc6cn(-c7cccc([N+](=O)[O-])c7)nn6)CC[C@@]5(C)[C@]4(C)CC[C@H]3C2(C)C)O[C@H](CO[C@@H]2OC[C@H](O)[C@H](O)[C@@H]2O)[C@@H](O)[C@@H]1O | 4.48 | 4.59 | 4.42 | 4.57 | 4.43
CC(=O)N[C@H]1[C@H](O[C@H]2CC[C@]3(C)[C@H]4CC=C5[C@@H]6CC(C)(C)CC[C@]6(C(=O)OCc6cn(-c7cccc(Cl)c7)nn6)CC[C@@]5(C)[C@]4(C)CC[C@H]3C2(C)C)O[C@H](CO[C@@H]2OC[C@H](O)[C@H](O)[C@@H]2O)[C@@H](O)[C@@H]1O | 5.09 | 4.73 | 4.96 | 4.94 | 5.11
CC(=O)N[C@H]1[C@H](O[C@H]2CC[C@]3(C)[C@H]4CC=C5[C@@H]6CC(C)(C)CC[C@]6(C(=O)OCc6cn(-c7cccc(F)c7)nn6)CC[C@@]5(C)[C@]4(C)CC[C@H]3C2(C)C)O[C@H](CO[C@@H]2OC[C@H](O)[C@H](O)[C@@H]2O)[C@@H](O)[C@@H]1O | 4.74 | 4.46 | 4.73 | 4.95 | 4.71
COc1cccc(-n2cc(COC(=O)[C@]34CCC(C)(C)C[C@H]3C3=CC[C@@H]5[C@@]6(C)CC[C@H](O[C@@H]7O[C@H](CO[C@@H]8OC[C@H](O)[C@H](O)[C@@H]8O)[C@@H](O)[C@H](O)[C@H]7NC(C)=O)C(C)(C)[C@@H]6CC[C@@]5(C)[C@]3(C)CC4)nn2)c1 | 5.19 | 4.68 | 4.94 | 4.91 | 4.88
CC(=O)N[C@H]1[C@H](O[C@H]2CC[C@]3(C)[C@H]4CC=C5[C@@H]6CC(C)(C)CC[C@]6(C(=O)OCc6cn(-c7ccc(C)cc7C)nn6)CC[C@@]5(C)[C@]4(C)CC[C@H]3C2(C)C)O[C@H](CO[C@@H]2OC[C@H](O)[C@H](O)[C@@H]2O)[C@@H](O)[C@@H]1O | 4.39 | 4.35 | 4.33 | 4.32 | 4.37
CC(=O)N[C@H]1[C@H](O[C@H]2CC[C@]3(C)[C@H]4CC=C5[C@@H]6CC(C)(C)CC[C@]6(C(=O)OCc6cn(-c7cccc(C)c7)nn6)CC[C@@]5(C)[C@]4(C)CC[C@H]3C2(C)C)O[C@H](CO[C@@H]2OC[C@H](O)[C@H](O)[C@@H]2O)[C@@H](O)[C@@H]1O | 4.98 | 4.69 | 4.96 | 5.15 | 4.84
COC(=O)c1ccccc1-n1cc(COC(=O)[C@]23CCC(C)(C)C[C@H]2C2=CC[C@@H]4[C@@]5(C)CC[C@H](O[C@@H]6O[C@H](CO[C@@H]7OC[C@H](O)[C@H](O)[C@@H]7O)[C@@H](O)[C@H](O)[C@H]6NC(C)=O)C(C)(C)[C@@H]5CC[C@@]4(C)[C@]2(C)CC3)nn1 | 4.16 | 4.06 | 4.12 | 4.42 | 4.18
CC(=O)N[C@H]1[C@H](O[C@H]2CC[C@]3(C)[C@H]4CC=C5[C@@H]6CC(C)(C)CC[C@]6(C(=O)OCc6cn(-c7ccccc7F)nn6)CC[C@@]5(C)[C@]4(C)CC[C@H]3C2(C)C)O[C@H](CO[C@@H]2OC[C@H](O)[C@H](O)[C@@H]2O)[C@@H](O)[C@@H]1O | 4.72 | 4.32 | 4.69 | 4.63 | 4.62
CC(=O)N[C@H]1[C@H](O[C@H]2CC[C@]3(C)[C@H]4CC=C5[C@@H]6CC(C)(C)CC[C@]6(C(=O)OCc6cn(-c7ccc(C(F)(F)F)cc7)nn6)CC[C@@]5(C)[C@]4(C)CC[C@H]3C2(C)C)O[C@H](CO[C@@H]2OC[C@H](O)[C@H](O)[C@@H]2O)[C@@H](O)[C@@H]1O | 4.93 | 4.82 | 4.89 | 4.91 | 4.85
CC(=O)N[C@H]1[C@H](O[C@H]2CC[C@]3(C)[C@H]4CC=C5[C@@H]6CC(C)(C)CC[C@]6(C(=O)OCc6cn(-c7ccc(C#N)cc7)nn6)CC[C@@]5(C)[C@]4(C)CC[C@H]3C2(C)C)O[C@H](CO[C@@H]2OC[C@H](O)[C@H](O)[C@@H]2O)[C@@H](O)[C@@H]1O | 4.76 | 4.80 | 4.74 | 5.05 | 4.65
CC(=O)N[C@H]1[C@H](O[C@H]2CC[C@]3(C)[C@H]4CC=C5[C@@H]6CC(C)(C)CC[C@]6(C(=O)OCc6cn(-c7ccc(Cl)cc7Cl)nn6)CC[C@@]5(C)[C@]4(C)CC[C@H]3C2(C)C)O[C@H](CO[C@@H]2OC[C@H](O)[C@H](O)[C@@H]2O)[C@@H](O)[C@@H]1O | 4.49 | 4.54 | 4.50 | 4.41 | 4.44
COc1ccc(-n2cc(COC(=O)[C@]34CCC(C)(C)C[C@H]3C3=CC[C@@H]5[C@@]6(C)CC[C@H](O[C@@H]7O[C@H](CO[C@@H]8OC[C@H](O)[C@H](O)[C@@H]8O)[C@@H](O)[C@H](O)[C@H]7NC(C)=O)C(C)(C)[C@@H]6CC[C@@]5(C)[C@]3(C)CC4)nn2)cc1 | 4.91 | 4.71 | 4.71 | 4.70 | 4.68
CC(=O)N[C@H]1[C@H](O[C@H]2CC[C@]3(C)[C@H]4CC=C5[C@@H]6CC(C)(C)CC[C@]6(C(=O)OCc6cn(-c7ccc(Br)cc7)nn6)CC[C@@]5(C)[C@]4(C)CC[C@H]3C2(C)C)O[C@H](CO[C@@H]2OC[C@H](O)[C@H](O)[C@@H]2O)[C@@H](O)[C@@H]1O | 4.90 | 4.58 | 4.91 | 4.64 | 4.90
CC(=O)N[C@H]1[C@H](O[C@H]2CC[C@]3(C)[C@H]4CC=C5[C@@H]6CC(C)(C)CC[C@]6(C(=O)OCc6cn(-c7ccccc7C)nn6)CC[C@@]5(C)[C@]4(C)CC[C@H]3C2(C)C)O[C@H](CO[C@@H]2OC[C@H](O)[C@H](O)[C@@H]2O)[C@@H](O)[C@@H]1O | 4.29 | 4.06 | 4.24 | 4.96 | 4.20
COc1ccccc1-n1cc(COC(=O)[C@]23CCC(C)(C)C[C@H]2C2=CC[C@@H]4[C@@]5(C)CC[C@H](O[C@@H]6O[C@H](CO[C@@H]7OC[C@H](O)[C@H](O)[C@@H]7O)[C@@H](O)[C@H](O)[C@H]6NC(C)=O)C(C)(C)[C@@H]5CC[C@@]4(C)[C@]2(C)CC3)nn1 | 4.30 | 4.27 | 4.28 | 4.25 | 4.22
CC(=O)N[C@H]1[C@H](O[C@H]2CC[C@]3(C)[C@H]4CC=C5[C@@H]6CC(C)(C)CC[C@]6(C(=O)OCc6cn(-c7ccc(Cl)cc7)nn6)CC[C@@]5(C)[C@]4(C)CC[C@H]3C2(C)C)O[C@H](CO[C@@H]2OC[C@H](O)[C@H](O)[C@@H]2O)[C@@H](O)[C@@H]1O | 4.55 | 4.17 | 4.60 | 4.42 | 4.41
CC(=O)N[C@H]1[C@H](O[C@H]2CC[C@]3(C)[C@H]4CC=C5[C@@H]6CC(C)(C)CC[C@]6(C(=O)OCc6cn(-c7cccc(C#N)c7)nn6)CC[C@@]5(C)[C@]4(C)CC[C@H]3C2(C)C)O[C@H](CO[C@@H]2OC[C@H](O)[C@H](O)[C@@H]2O)[C@@H](O)[C@@H]1O | 4.56 | 4.56 | 4.54 | 4.57 | 4.53
CC(=O)N[C@H]1[C@H](O[C@H]2CC[C@]3(C)[C@H]4CC=C5[C@@H]6CC(C)(C)CC[C@]6(C(=O)OCc6cn(-c7ccccc7Br)nn6)CC[C@@]5(C)[C@]4(C)CC[C@H]3C2(C)C)O[C@H](CO[C@@H]2OC[C@H](O)[C@H](O)[C@@H]2O)[C@@H](O)[C@@H]1O | 4.21 | 4.17 | 4.26 | 4.88 | 4.19
CC(=O)N[C@H]1[C@H](O[C@H]2CC[C@]3(C)[C@H]4CC=C5[C@@H]6CC(C)(C)CC[C@]6(C(=O)OCc6cn(-c7ccc(C(C)=O)cc7)nn6)CC[C@@]5(C)[C@]4(C)CC[C@H]3C2(C)C)O[C@H](CO[C@@H]2OC[C@H](O)[C@H](O)[C@@H]2O)[C@@H](O)[C@@H]1O | 4.94 | 4.83 | 4.77 | 4.89 | 4.85
CC(=O)N[C@H]1[C@H](O[C@H]2CC[C@]3(C)[C@H]4CC=C5[C@@H]6CC(C)(C)CC[C@]6(C(=O)OCc6cn(-c7ccccc7)nn6)CC[C@@]5(C)[C@]4(C)CC[C@H]3C2(C)C)O[C@H](CO[C@@H]2OC[C@H](O)[C@H](O)[C@@H]2O)[C@@H](O)[C@@H]1O | 4.74 | 4.66 | 4.71 | 4.60 | 5.00

From ChEMBL document CHEMBL4261580, “Novel antitumor compound optimized from natural saponin Albiziabioside A induced caspase-dependent apoptosis and ferroptosis as a p53 activator through the mitochondrial pathway” (Eur J Med Chem, 2018)
